Reference: PubChem BioAssay AID180 (DTP/NCI, 2004)
Several values for one entry are separate records, joined by “and”; a condition that tells them apart may be missing. Equal entries are not always repeated.

System: BDF1 mice, Adenocarcinoma 755 s.c., tumor weight T/C
Experiment: NCI In Vivo Anticancer Drug Screen. Data for tumor model Adenocarcinoma 755 (subcutaneous) in B6D2F1 (BDF1) mice
Details: endpoint: mean tumor weight, higher = larger tumour
In short: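 Values express treated (T) relative to vehicle-dosed control (C) animals, based on survival or tumour size measured after compound treatment of mice bearing a transplanted tumour.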

[1] = dose: 30.0 mg/kg/injection, schedule: Q01DX011 (ip), vehicle: carboxymethylcellulose (CMC)
[2] = dose: 120.0 mg/kg/injection, schedule: Q01DX011 (ip), vehicle: carboxymethylcellulose (CMC)
[3] = dose: 7.5 mg/kg/injection, schedule: Q01DX011 (ip), vehicle: carboxymethylcellulose (CMC)

Q: What does the source list for `Cn1cnc([N+](=O)[O-])c1Sc1ncnc2nc[nH]c12`?
A: T/C (dose: 0.03 mg/kg/injection, schedule: Q01DX011 (oral), vehicle: other): 79 % of control; T/C (dose: 0.06 mg/kg/injection, schedule: Q01DX011 (oral), vehicle: other): 63 % of control; T/C (dose: 0.12 mg/kg/injection, schedule: Q01DX011 (oral), vehicle: other): 48 % of control; T/C (dose: 0.25 mg/kg/injection, schedule: Q01DX006 (iv), vehicle: other): 64 % of control; T/C (dose: 0.25 mg/kg/injection, schedule: Q01DX011 (oral), vehicle: other): 36 % of control; T/C (dose: 0.5 mg/kg/injection, schedule: Q01DX006 (iv), vehicle: other): 58 % of control; T/C (dose: 0.5 mg/kg/injection, schedule: Q01DX011 (oral), vehicle: other): 40 % of control; T/C (dose: 1.0 mg/kg/injection, schedule: Q01DX006 (iv), vehicle: other): 16 % of control; T/C (dose: 1.0 mg/kg/injection, schedule: Q01DX011 (oral), vehicle: other): 5 % of control and 10 % of control; T/C (dose: 2.0 mg/kg/injection, schedule: Q01DX006 (iv), vehicle: other): 9 % of control; T/C (dose: 2.0 mg/kg/injection, schedule: Q01DX011 (ip), vehicle: other): 3 % of control; T/C (dose: 2.5 mg/kg/injection, schedule: Q01DX011 (ip), vehicle: methylcellulose (MC)): 15 % of control and 36 % of control; T/C (dose: 2.5 mg/kg/injection, schedule: Q01DX011 (oral), vehicle: other): 2 % of control; T/C (dose: 3.1 mg/kg/injection, schedule: Q01DX001 (ip), vehicle: other): 56 % of control; T/C (dose: 4.0 mg/kg/injection, schedule: Q01DX006 (iv), vehicle: other): 3 % of control; T/C (dose: 4.0 mg/kg/injection, schedule: Q01DX011 (im), vehicle: other): 3 % of control; T/C (dose: 4.0 mg/kg/injection, schedule: Q01DX011 (iv), vehicle: other): 17 % of control; T/C (dose: 4.0 mg/kg/injection, schedule: Q01DX011 (sc), vehicle: other): 1 % of control; T/C (dose: 4.0 mg/kg/injection, schedule: Q#A X022 (ip), vehicle: other): 2 % of control; T/C (dose: 5.0 mg/kg/injection, schedule: Q01DX011 (ip), vehicle: methylcellulose (MC)): 4 % of control and 7 % of control; T/C (dose: 6.3 mg/kg/injection, schedule: Q01DX001 (ip), vehicle: other): 52 % of control; T/C (dose: 8.0 mg/kg/injection, schedule: Q01DX011 (im), vehicle: other): 1 % of control; T/C (dose: 8.0 mg/kg/injection, schedule: Q01DX011 (iv), vehicle: other): 2 % of control; T/C (dose: 9.5 mg/kg/injection, schedule: Q01DX011 (ip), vehicle: methylcellulose (MC)): 2 % of control and 8 % of control; T/C (dose: 10.0 mg/kg/injection, schedule: Q01DX011 (ip), vehicle: methylcellulose (MC)): 4 % of control and 7 % of control; T/C (dose: 12.0 mg/kg/injection, schedule: Q03DX004 (ip), vehicle: other): 2 % of control; T/C (dose: 12.5 mg/kg/injection, schedule: Q01DX001 (ip), vehicle: other): 28 % of control; T/C (dose: 16.0 mg/kg/injection, schedule: Q01DX011 (iv), vehicle: other): 1 % of control; T/C (dose: 19.0 mg/kg/injection, schedule: Q01DX011 (ip), vehicle: methylcellulose (MC)): 2 % of control; T/C (dose: 20.0 mg/kg/injection, schedule: Q01DX011 (oral), vehicle: other): 7 % of control; T/C (dose: 25.0 mg/kg/injection, schedule: Q01DX001 (ip), vehicle: other): 1 % of control and 2 % of control and 20 % of control; T/C (dose: 28.0 mg/kg/injection, schedule: Q07DX002 (ip), vehicle: other): 17 % of control; T/C (dose: 38.0 mg/kg/injection, schedule: Q01DX011 (ip), vehicle: methylcellulose (MC)): 2 % of control; T/C (dose: 40.0 mg/kg/injection, schedule: Q01DX011 (oral), vehicle: other): 9 % of control; T/C (dose: 50.0 mg/kg/injection, schedule: Q01DX001 (ip), vehicle: other): 41 % of control; T/C (dose: 56.0 mg/kg/injection, schedule: Q07DX002 (ip), vehicle: other): 3 % of control; T/C (dose: 96.0 mg/kg/injection, schedule: Q03DX004 (ip), vehicle: other): 1 % of control; T/C (dose: 100.0 mg/kg/injection, schedule: Q01DX001 (ip), vehicle: other): 1 % of control; T/C (dose: 112.0 mg/kg/injection, schedule: Q07DX002 (ip), vehicle: other): 8 % of control; T/C (dose: 200.0 mg/kg/injection, schedule: Q01DX001 (ip), vehicle: other): 45 % of control

Q: For `CN(C)c1nc(N)nc(Nc2ccc(Br)cc2)c1N=O`, which T/C (dose: 12.5 mg/kg/injection, schedule: Q01DX011 (ip), vehicle: carboxymethylcellulose (CMC)) is on record?
A: 40 % of control

Q: And the T/C (dose: 25.0 mg/kg/injection, schedule: Q01DX011 (ip), vehicle: carboxymethylcellulose (CMC))?
A: 51 % of control

Q: With `Cc1ccc(CSc2ncnc3nc[nH]c23)c2ccccc12` as the molecule, how does the T/C (dose: 75.0 mg/kg/injection, schedule: Q01DX011 (ip), vehicle: methylcellulose (MC)) read?
A: 54 % of control

Q: What about the T/C (dose: 150.0 mg/kg/injection, schedule: Q01DX011 (ip), vehicle: methylcellulose (MC)) of the same molecule?
A: 33 % of control

Q: What about the T/C (dose: 300.0 mg/kg/injection, schedule: Q01DX011 (ip), vehicle: methylcellulose (MC)) of the same molecule?
A: 38 % of control

Q: What about the T/C (dose: 600.0 mg/kg/injection, schedule: Q01DX011 (ip), vehicle: methylcellulose (MC)) of the same molecule?
A: 11 % of control

Q: For `OCC1OC(n2cnc3c(Br)ncnc32)C(O)C1O` (configuration not stated), which T/C [1] is on record?
A: 74 % of control

Q: And the T/C [2]?
A: 63 % of control

Q: And the T/C (dose: 240.0 mg/kg/injection, schedule: Q01DX011 (ip), vehicle: carboxymethylcellulose (CMC))?
A: 49 % of control

Q: What does the source list for `FC(F)(F)c1nc(Cl)nc2c1ncn2Cc1ccccc1`?
A: T/C [1]: 56 % of control; T/C (dose: 60.0 mg/kg/injection, schedule: Q01DX011 (ip), vehicle: carboxymethylcellulose (CMC)): 97 % of control; T/C [2]: 97 % of control

Q: `S=P(N1CCCCCC1)(N1CC1)N1CC1` was tested. Which T/C (dose: 1.0 mg/kg/injection, schedule: Q01DX011 (ip), vehicle: carboxymethylcellulose (CMC)) did it give?
A: 92 % of control

Q: What about the T/C (dose: 1.75 mg/kg/injection, schedule: Q01DX011 (ip), vehicle: saline) of the same molecule?
A: 58 % of control

Q: What about the T/C (dose: 2.0 mg/kg/injection, schedule: Q01DX011 (ip), vehicle: carboxymethylcellulose (CMC)) of the same molecule?
A: 90 % of control

Q: And the T/C (dose: 3.13 mg/kg/injection, schedule: Q01DX011 (ip), vehicle: saline)?
A: 68 % of control

Q: What about the T/C (dose: 3.5 mg/kg/injection, schedule: Q01DX011 (ip), vehicle: saline) of the same molecule?
A: 70 % of control

Q: What about the T/C (dose: 4.0 mg/kg/injection, schedule: Q01DX011 (ip), vehicle: carboxymethylcellulose (CMC)) of the same molecule?
A: 38 % of control

Q: And the T/C (dose: 6.25 mg/kg/injection, schedule: Q01DX011 (ip), vehicle: saline)?
A: 26 % of control and 50 % of control

Q: And the T/C (dose: 6.75 mg/kg/injection, schedule: Q01DX011 (ip), vehicle: methylcellulose (MC))?
A: 36 % of control

Q: And the T/C (dose: 7.0 mg/kg/injection, schedule: Q01DX011 (ip), vehicle: saline)?
A: 42 % of control

Q: And the T/C [3]?
A: 96 % of control

Q: What about the T/C (dose: 8.0 mg/kg/injection, schedule: Q01DX011 (ip), vehicle: carboxymethylcellulose (CMC)) of the same molecule?
A: 23 % of control

Q: What about the T/C (dose: 13.5 mg/kg/injection, schedule: Q01DX011 (ip), vehicle: methylcellulose (MC)) of the same molecule?
A: 33 % of control

Q: And the T/C (dose: 13.5 mg/kg/injection, schedule: Q01DX011 (ip), vehicle: saline)?
A: 29 % of control

Q: What about the T/C (dose: 14.0 mg/kg/injection, schedule: Q01DX011 (ip), vehicle: saline) of the same molecule?
A: 5 % of control

Q: What about the T/C (dose: 15.0 mg/kg/injection, schedule: Q01DX011 (ip), vehicle: carboxymethylcellulose (CMC)) of the same molecule?
A: 43 % of control

Q: What about the T/C (dose: 16.0 mg/kg/injection, schedule: Q01DX011 (ip), vehicle: carboxymethylcellulose (CMC)) of the same molecule?
A: 6 % of control

Q: What about the T/C (dose: 27.0 mg/kg/injection, schedule: Q01DX011 (ip), vehicle: saline) of the same molecule?
A: 25 % of control

Q: And the T/C [1]?
A: 10 % of control

Q: And the T/C (dose: 54.0 mg/kg/injection, schedule: Q01DX011 (ip), vehicle: saline)?
A: 24 % of control

Q: Which results are given for `CS(=O)(=O)c1nc(N)nc2nc[nH]c12`?
A: T/C (dose: 3.75 mg/kg/injection, schedule: Q01DX011 (ip), vehicle: carboxymethylcellulose (CMC)): 81 % of control; T/C [3]: 93 % of control and 81 % of control; T/C [1]: 5 % of control and 12 % of control

Q: How did the T/C (dose: 89.06 mg/kg/injection, schedule: Q01DX011 (ip), vehicle: carboxymethylcellulose (CMC)) turn out when `CC1NC(=O)NC1CCCCCC(=O)O` (configuration not stated) was run?
A: 122 % of control

Q: And the T/C (dose: 125.0 mg/kg/injection, schedule: Q01DX011 (ip), vehicle: carboxymethylcellulose (CMC))?
A: 75 % of control

Q: What about the T/C (dose: 178.13 mg/kg/injection, schedule: Q01DX011 (ip), vehicle: carboxymethylcellulose (CMC)) of the same molecule?
A: 83 % of control

Q: What about the T/C (dose: 250.0 mg/kg/injection, schedule: Q01DX011 (ip), vehicle: carboxymethylcellulose (CMC)) of the same molecule?
A: 49 % of control

Q: What about the T/C (dose: 356.25 mg/kg/injection, schedule: Q01DX011 (ip), vehicle: carboxymethylcellulose (CMC)) of the same molecule?
A: 90 % of control

Q: What about the T/C (dose: 500.0 mg/kg/injection, schedule: Q01DX011 (ip), vehicle: carboxymethylcellulose (CMC)) of the same molecule?
A: 68 % of control

Q: And the T/C (dose: 712.5 mg/kg/injection, schedule: Q01DX011 (ip), vehicle: carboxymethylcellulose (CMC))?
A: 47 % of control

Q: And the T/C (dose: 1000.0 mg/kg/injection, schedule: Q01DX011 (ip), vehicle: carboxymethylcellulose (CMC))?
A: 69 % of control
